# Results published in PubChem BioAssay AID652 (University of Pittsburgh Molecular Library Screening Center, 2007).
# Molecular target: Gag-Pol polyprotein (Human immunodeficiency virus type 1 group M subtype B (isolate HXB2)) (UniProt P04585)
# Experiment: HIV-1 RT RNase H inhibitor potency, dose response, biochemical, probe assessment (AID 652)
# Settings: HIV-1 RT RNase H enzymatic assay
row,SMILES,IC50
1,Nc1c(S(=O)(=O)c2cccc(Cl)c2)c2nc3ccccc3nc2n1/N=C/c1ccc(O)c(O)c1,0.266 µM
2,O=C1CCCC(O)=C1C(C#Cc1ccccc1)C1=C(O)CCCC1=O,1.08 µM
3,O=c1/c(=C/c2ccccn2)sc2nc3ccccc3n12,14.6 µM
4,S=C(c1ccc(-c2ccccc2Cl)o1)N1CCOCC1,0.926 µM
5,C=CCSc1nc2c(cnn2-c2ccc(C)c(C)c2)c(=O)[nH]1,13.8 µM
6,COc1ccc(-n2nc3cc(C)c(NC(=O)CC(C)C)cc3n2)cc1,8.06 µM
7,CCN(CC)C1=CC(=O)OC12CCCCC2,42.8 µM
8,CC(C)Sc1nc(-c2cccs2)nc2c1c(=O)n(C)c(=O)n2C,5.42 µM

# Same assay, conditions: HIV-1 RT RNase H enzymatic assay, inhibition, at 50 µM, stronger effect = higher value
row,SMILES,inhibition
1,Nc1ccc(-c2nnc(-c3ccc(-c4ccccc4)cc3)o2)cc1,101%
2,COC(=O)c1cccc(N2C(=O)C(Cl)=C(N3CCOCC3)C2=O)c1,29.2%
3,N#Cc1c(NC(=O)CN2CCN(S(=O)(=O)c3ccc4c(c3)OCCO4)CC2)sc2c1CCC2,81.9%
4,O=C(O)/C=C/c1ccc(O)c(O)c1,52.1%
5,COC(=O)c1ccccc1S(=O)(=O)N(Cc1cc2cc3c(cc2[nH]c1=O)OCO3)C1CCCCC1,90.3%
6,COc1cc(-c2nnc3sc(Cc4ccc(Cl)cc4)nn23)cc(OC)c1OC,96.4%
7,CCOC(=O)c1sc(=S)n2c1[nH]c(=O)c1ccc(C(=O)OC)cc12,99.7%
8,CC(C)C1N=C2c3ccccc3N=C(SCC(=O)c3ccc(O)c(O)c3)N2C1=O (configuration not stated),99.8%
9,CCCc1cc(C(=O)Nc2sc3c(c2C#N)CCC3)no1,92.6%
10,CCOc1ccc(-n2c(=O)c3c4c(sc3n(CC(=O)NCc3ccco3)c2=O)CCC4)cc1,89.9%
11,Nc1c(S(=O)(=O)c2cccc(Cl)c2)c2nc3ccccc3nc2n1/N=C/c1ccc(O)c(O)c1,96.3%
12,CCCCCC#CCC#CCC#CCC#CCCCC(=O)O,98%
13,O=C1CCCC(O)=C1C(C#Cc1ccccc1)C1=C(O)CCCC1=O,90.9%
14,COc1ccc(CC(=O)Nc2ccc(-c3noc(-c4cccc(OC)c4)n3)cc2)cc1,85.5%
15,COc1ccc(CCNC(=O)c2c(O)c3cccc4c3n(c2=O)CC4)cc1,67.1%
16,CC(=O)c1cccc(NC(=O)c2cc(-c3ccc(C)cc3)on2)c1,95.8%
17,Cc1cc(C)n2c(=S)[nH]nc2n1,71.1%
18,Cc1cc(C)c2c(=O)n(CC(=O)N3CCC(N4CCCCC4)CC3)sc2n1,60.1%
19,O=c1ccc2cc3c([nH]c4ccc(Br)cc43)oc-2c1O,88.5%
20,Cc1sc2nc(SCC(=O)NCc3ccco3)n(CCc3ccccc3)c(=O)c2c1C,82.4%
21,Cn1ccnc1P(=S)(c1nccn1C)N1CCOCC1,60%
22,O=C(NC1CCCCC1)c1sc(=S)n2c1[nH]c(=O)c1ccccc12,96.5%
23,O=c1/c(=C/c2ccccn2)sc2nc3ccccc3n12,89.2%

row,SMILES,inhibition
1,Cc1cccc(N2CCN(C(=O)Cn3sc4nc(C)cc(C)c4c3=O)CC2C)c1 (configuration not stated),86%
2,COC(=O)c1ccccc1NC(=O)c1ccc2c(c1)C(=O)N(Cc1ccco1)C2=O,93.3%
3,COc1cc(N=c2ssnc2Cl)cc(OC)c1OC,78.8%
4,Cc1ccc(-n2c(N)c(C(=O)N3CCOCC3)sc2=S)cc1,75.9%
5,Cc1ccccc1OCc1nc(-c2ccc(NC(=O)c3ccc4c(c3)OCO4)cc2)no1,90.2%
6,CC1CC(C)(C)NC(=S)S1 (configuration not stated),66%
7,Cc1ccc(NC(=O)CSc2nnc(-c3ccc(S(=O)(=O)N4CCCC4)cc3)o2)cc1C,88.6%
8,S=C(c1ccc(-c2ccccc2Cl)o1)N1CCOCC1,92.6%
9,Cc1cccc(N2CSC3=C(C#N)C(c4ccc(C)o4)CC(=O)N3C2)c1 (configuration not stated),100%
10,Cc1cccc(-c2nsc(SCC(=O)Nc3nccs3)n2)c1,97.3%
11,CC(C)CN(C(=O)COC(=O)c1ccc2c(c1)NC(=O)CS2)C1CCS(=O)(=O)C1 (configuration not stated),55.8%
12,Cc1oc(-c2ccc(Cl)cc2)cc1-c1nn2c(-c3ccoc3C)nnc2s1,78.4%
13,C=CCSc1nc2c(cnn2-c2ccc(C)c(C)c2)c(=O)[nH]1,88.6%
14,O=C(NC(=O)c1ccc(Cl)cc1)Nc1cc(N2CCCCC2)ncn1,97.4%
15,Cc1cccc(Nc2n[nH]c(=S)s2)c1C,96.9%
16,Cc1ccc2c(c1C)NC(C(=O)O)C1CC=CC21 (configuration not stated),96.5%
17,O=C(Nc1nc(-c2ccncc2)cs1)c1ccco1,87.1%
18,CCOC(=O)C(C(C)=O)c1c(Br)c(O)c(O)c2c(C(=O)c3ccc(C)cc3)coc12 (configuration not stated),86.7%
19,COc1ccccc1-c1nnc2n1N=C(c1ccc(O)c(O)c1)CS2,97%
20,CC(C)Sc1nc2sc3c(c2c2nnc(SCC(=O)NCc4ccco4)n12)CCCC3,85.1%
21,C=CCSc1nc2c(c(=O)[nH]c(=O)n2C)n1CC,72.8%
22,COc1ccccc1N=c1oc2c(OC)cccc2cc1C(=O)NCc1ccco1,94.1%
23,COc1ccc(N2CSC3=C(C#N)C(c4cc(OC)ccc4OC)CC(=O)N3C2)c(OC)c1 (configuration not stated),93.9%

row,SMILES,inhibition
1,O=c1c(O)c(-c2ccc(O)cc2O)oc2cc(O)cc(O)c12,92.8%
2,Cc1ccc(-n2c(N)c(C(=O)N3CCCCC3)sc2=S)cc1,79.5%
3,CN1CCN(C(=O)c2sc(=S)n(-c3ccccc3)c2N)CC1,73.1%
4,Cc1cc(C(=O)CSc2nnc(-c3ccc(OC(F)F)cc3)o2)c(C)n1Cc1cccs1,74.6%
5,COc1ccc(-n2nc3cc(C)c(NC(=O)CC(C)C)cc3n2)cc1,93.4%
6,COc1ccc(OC)c(/C=N/c2oc(-c3ccco3)c(-c3ccco3)c2C#N)c1,89.5%
7,COc1ccc(-n2c(SCC(=O)N3CCCC3)nc3c([nH]c4ccccc43)c2=O)cc1,66.7%
8,CCN(CC)C1=CC(=O)OC12CCCCC2,65.8%
9,CC(C)Sc1nc(-c2cccs2)nc2c1c(=O)n(C)c(=O)n2C,98.9%
10,O=C1c2sc3nc4ccccc4n3c2C(=O)N1c1ccccc1Cl,98.9%
11,O=C(O)c1cc(S(=O)(=O)Nc2ccc3oc(=O)sc3c2)ccc1O,88.2%
12,O=c1c2ccccc2sn1-c1cc(S(=O)(=O)N2CCOCC2)ccc1N1CCOCC1,84.4%
13,COc1ccc(-c2nsc(SCC(=O)Nc3cc(C)on3)n2)cc1,96.6%
14,CC(C)OC(=O)CSc1nnc(-c2ccc(C(C)(C)C)cc2)n1N,59.5%
15,O=c1cc(CN2CCN(c3ccccc3)CC2)c2cc(O)c(-c3ccccc3)cc2o1,96.1%
16,COc1cc(-c2nn3c(Cc4ccccc4)nnc3s2)cc(OC)c1OC,86%
17,Cc1nn(CCc2nc(-c3ccco3)cs2)c2[nH]c(=O)cc(C(F)(F)F)c12,97.6%
18,COc1ccc(Br)cc1C1CC(=O)N2CN(C)CSC2=C1C#N (configuration not stated),84.1%
19,Cc1ccnc(-n2sc3ccccc3c2=O)n1,96.7%
20,CC1(C)Cc2[nH]c(=S)c(C#N)cc2CO1,71.1%
21,COc1cc(C(=O)Nc2oc(-c3ccccc3)c(-c3ccccc3)c2C#N)cc(OC)c1OC,94%
22,CCOc1ccccc1N1CSC2=C(C#N)C(c3c(OC)ccc4ccccc34)CC(=O)N2C1 (configuration not stated),92%
23,COC(=O)c1sc(N2C(=O)c3oc4ccccc4c(=O)c3C2c2cccs2)nc1C (configuration not stated),95.8%
